We go through 14 molecules from patent publication US4800201A, “1,4-thiazine derivative, and cardiotonic agent comprising it as effective component” (Zenyaku Kogyo Kabushiki Kaisha, priority 1984, dated 1989).

Data set [1] relates to isolated left atrium of guinea pig. Kind of data set: Effect on isolated left atrium of guinea pig (Pharmacological Test 1, Table 1). The arrangement: species or system guinea pig (male Hartley). The following applies: 1×10^-4 mole, electrically stimulated 0.5 cps, 30° to 32° C. The protocol:
Effect on isolated left atrium of guinea pig was tested according to the method described in Basic Lectures of Medicine Development, Volume V, Pharmacological Test Methods, Part 2, page 534 (1971) published by Chizin Shokan Kabushiki Kaisha in Japan. A 7-weeks-old male Hartley guinea pig (having body weight of about 350 g) was stunned by a blow on the head. The heart was cut out, and the left atrium was taken out in Krebs-Henseleit solution (prepared by adding distilled water for injection to 6.92 g of sodium chloride, 0.35 g of potassium chloride, 0.28 g of calcium chloride, 0.29 g of magnesium sulfate, 0.16 g of mono-basic potassium phosphate, 2.1 g of sodium bicarbonate and 1.8 g of glucose so that the total amount was 1000 ml) which was sufficiently bubbled with oxygen gas. The isolated left atrium was suspended in Magnus' bath at 30° to 32° C. and isometric contraction was recorded by the pen-writing oscillograph through the strain pressure amplifier connected to the force displacement pickup.
The atrium was stimulated electrically at 0.5 cps for 5 msec under a voltage of 20% above threshold. The nutritive liquid was Krebs-Henseleit solution through which 95% oxygen gas and 5% carbon dioxide was blown. Effect of each sample was tested 60 to 90 minutes after stimulation at which the generated tension became stable. In this test, corresponding concentration of each sample was 1×10^-4 mole.

Data set [2] in a line: Acute toxicity, Litchfield-Wilcoxon method (Pharmacological Test 3, Table 3). The following applies: mouse, in vivo, ip; intraperitoneal injection, 6-weeks-old male ddY mice. The protocol: The acute toxicity was determined according to the Litchfield-Wilcoxon method, J. Pharm. Exp. Ther., 96, 99 […] using 6-weeks-old male ddY mice (having body weight of 19-24 g) while administrating the sample compound in intraperitonial injection.

Another data set has as its system isolated auricule. As to the kind of experiment: Effect on isolated auricule (Pharmacological Test 2, Table 2). The arrangement: species or system guinea pig (male Hartley). The following applies: 3×10^-4 mole, 30°±1° C., recording 5 minutes; for activation at 300 µM: Cavia porcellus, 5 min, read-out: Increase in heart rate. The procedure:
Effect on isolated auricule was tested according to the method of L. J. Mcleod described in Pharmacological Experiments on Intact Preparations, pages 112-115 (1970). A 7-weeks-old male Hartley guinea pig (having body weight of about 350 g) was killed by a blow on the head. The heart was cut out, and all the tissues except for the auricule were cut away in Ringer-Locke solution (prepared by adding distilled water for injection to 9.0 g of sodium chloride, 0.25 g of potassium chloride, 0.15 g of calcium chloride and 1.0 g of glucose so that the total amount was 1000 ml). One of cotton threads, which were tied to each tip of the auricule, is attached to Magnus' bath and the other to the force displacement pickup. The Magnus' bath was maintained at 30°±1° C. through which oxygen gas was bubbled. When the rhythmic movement and contraction of cardiac muscle became constant, recording by the pen-writing oscillograph was started. After 1 minute, sample compound was injected and recording was conducted for 5 minutes. After completion of recording, the isolated auricule was washed with Ringer-Locke solution until the rhythmic movement and contraction of cardiac muscle became constant. After 30 minutes, recording by the pen-writing oscillograph was started again. In this test, corresponding concentration of each sample was 3×10^-4 mole.

In data set [1], `CC1=C(c2ccnnc2)SCC(=O)N1` had a Tension increment of 225 ± 123 mg. Still for that read-out and setting: under `CC1=C(c2ccncc2Cl)SCC(=O)N1` stands 426 ± 56 mg; under `CC1=C(c2ccncc2C=O)SCC(=O)N1`, 278 ± 56 mg. Still for that read-out and setting: as for `CC1=C(c2ccncc2C#N)SCC(=O)N1`, the figure is 214 ± 56 mg; as for `CC1=C(c2ccncc2)SC(c2ccc(O)cc2)C(=O)N1` (stereo not shown), 230 ± 92 mg; as for `CC1=C(c2ccncc2)SC(N2CCOCC2)C(=O)N1` (stereo not shown), 207 ± 47 mg. Take `CC1=C(c2ccncc2)SC(C)C(=O)N1` (stereo not shown) [2,5-dimethyl-6-(4-pyridinyl)-2H-1,4-thiazin-3(4H)-one]: in data set [2], the LD50 (as a rule, the dose expected to kill half of the subjects tested) was 230 mg/kg. Also, in the data set on isolated auricule, the Tension increment is listed as 158 mg and the activation at 300 µM amounted to 2%. Moreover, the Tension increment in data set [1] turned out to be 780 ± 93 mg. In the same order, the values of `CCC1SC(c2ccncc2)=C(C)NC1=O` (stereo not shown) [2-ethyl-5-methyl-6-(4-pyridinyl)-2H-1,4-thiazin-3(4H)-one] are 130 mg/kg, 226 mg, 2.4% and 925 ± 32 mg. In the case of `CNC1SC(c2ccncc2)=C(C)NC1=O` (stereo not shown) [5-methyl-2-methylamino-6-(4-pyridinyl)-2H-1,4-thiazin-3(4H)-one], the Tension increment in data set [1] is given as 233 ± 46 mg.

In data set [1], `CC1=C(c2ccnc3ccccc23)SCC(=O)N1` [drawing 13] yielded a Tension increment of 300 ± 125 mg. For `CC1=C(c2ccnc3ccccc23)SCC(=O)N1` [drawing 25], in the data set with isolated auricule, the Tension increment was 190 mg and the activation at 300 µM was 2.2%. On to `CC1=C(c2ccncc2)SCC(=O)N1` [drawing 26], for which, in the data set on isolated auricule, the Tension increment amounted to 250 mg and the activation at 300 µM turned out to be 9.4%.

The molecule `CC1=C(c2ccnc3ccccc23)SCC(=O)N1` [drawing 29] yielded a 50% lethal dose (LD50) in data set [2] of 270 mg/kg. For the molecule `CC1=C(c2ccncc2)SCC(=O)N1` [drawing 30], the 50% lethal dose (LD50) in data set [2] is 275 mg/kg.
